Laboratory results reported in PubChem BioAssay (NCI).
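Following 48 hours of exposure in 96-well plates, responses at five concentrations were used to interpolate endpoints linearly. Here, GI50 denotes the concentration required for 50% inhibition of growth. TGI: total growth inhibition.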

Tests used:
Experiment in all cases: NCI-60 cell line screen, 48 h
DMS 273 small cell lung = test system: DMS 273 small cell lung
SK-MEL-28 melanoma = test system: SK-MEL-28 melanoma
LXFL 529 NSCLC = test system: LXFL 529 NSCLC
M19-MEL melanoma = test system: M19-MEL melanoma
HOP-18 NSCLC = test system: HOP-18 NSCLC
SK-MEL-5 melanoma = test system: SK-MEL-5 melanoma
SF-539 CNS = test system: SF-539 CNS
MDA-MB-435 = test system: MDA-MB-435
MCF7 breast = test system: MCF7 breast
T-47D breast = test system: T-47D breast

Row | SMILES | TGI (DMS 273 small cell lung) [µM] | TGI (SK-MEL-28 melanoma) [µM] | TGI (LXFL 529 NSCLC) [µM] | TGI (M19-MEL melanoma) [µM] | TGI (HOP-18 NSCLC) [µM] | TGI (SK-MEL-5 melanoma) [µM] | TGI (SF-539 CNS) [µM] | TGI (MDA-MB-435) [µM] | TGI (MCF7 breast) [µM] | TGI (T-47D breast) [µM] | GI50 (DMS 273 small cell lung) [µM] | GI50 (SK-MEL-28 melanoma) [µM] | GI50 (M19-MEL melanoma) [µM] | GI50 (HOP-18 NSCLC) [µM] | GI50 (SK-MEL-5 melanoma) [µM] | GI50 (SF-539 CNS) [µM]
1 | O=C(CCCCCCCCCCc1ccccc1)c1c(O)cccc1O | 34 | 40.1 | 34.7 | 42.7 | 67.5 | 30.4 | 34.8 |  |  |  |  |  |  |  |  | 
2 | Cc1nnc2n1N=C(CC(=O)c1ccc(O)cc1O)CN2N | > 100 | > 100 | > 100 | > 100 |  | > 100 | > 100 |  |  |  |  |  |  |  |  | 
3 | S=C(Nc1ccccc1)Nc1[nH]c(=S)sc1-c1nc2ccccc2[nH]1 | > 100 | > 100 | > 100 | > 100 | > 100 | > 100 | 74.3 |  |  |  |  |  |  |  |  | 
4 | O=C1[C@H]2C(c3ccccc3)=NN(C(=O)c3ccccc3)[C@H]2C(=O)N1c1ccccc1 | > 100 | > 100 |  |  | > 100 |  | > 100 |  |  |  |  |  |  |  |  | 
5 | CCOC(=O)c1cnc2[nH]c(=O)c3ccccc3n2c1=O | > 100 | > 100 | > 100 | > 100 | > 100 | > 100 | > 100 |  |  |  |  |  |  |  |  | 
6 | O=C1OCC(C(=O)c2cccc(O)c2)C1=O (stereo not given) | > 100 | > 100 | > 100 | > 100 | > 100 | > 100 | > 100 |  |  |  |  |  |  |  |  | 
7 | COc1cc2ccn3c4cc(OC)c(OC)cc4cc3c2cc1OC |  | > 100 | > 100 | > 100 |  |  |  |  |  |  |  |  |  |  |  | 
8 | O=C(CCCCCCCCC(=O)OCC1OC(n2cnc3c(=O)[nH]cnc32)C(O)C1O)OCC1OC(n2cnc3c(=O)[nH]cnc32)C(O)C1O (stereo not given) | > 100 | > 100 |  | > 100 | > 100 | > 100 | > 100 |  |  |  |  |  |  |  |  | 
9 | CCOP(=O)(OCC)/C(C#N)=C\c1cccc2ccccc12 |  | > 100 |  | > 100 |  | > 100 | > 100 | > 100 | > 100 | > 100 |  |  |  |  |  | 
10 | CC1=C(C#N)C(N)=C2C(C)=C(C#N)C(N)=C12 | > 100 |  | > 100 | > 100 |  | > 100 | > 100 |  |  |  |  |  |  |  |  | 
11 | COC(=O)/C(C#N)=C1\N=NNN1CCCN1CCOCC1 | > 100 | > 100 | > 100 | > 100 | > 100 | > 100 | > 100 |  |  |  |  |  |  |  |  | 
12 | Oc1cc2cc(-c3ccccc3)[nH]c2c2ccccc12 | 2.06 | > 100 | > 100 | 28.9 | > 96 | 27.2 | 97.1 |  |  |  |  |  |  |  |  | 
13 | CC(C)OP(=O)(CP(=O)(OC(C)C)OC(C)C)OC(C)C.[CH3][Sn]([Br])([Br])[Br] | > 100 | > 100 |  | > 100 | > 100 | > 100 | > 100 |  |  |  | > 100 | > 100 | > 100 | > 100 | > 100 | > 100
14 | Brc1ccc2c(c1)C1(c3cc(Br)ccc3-2)c2cc(Br)ccc2-c2ccc(Br)cc21 | > 100 | > 100 | > 100 | > 100 | > 100 |  | > 100 |  |  |  |  |  |  |  |  | 
15 | COc1cc2c3c(c1OC)-c1ccccc1C(C(OC(C)=O)c1ccccc1)C3N(C)CC2 (stereo not given) | > 100 | > 100 | > 100 | > 100 | > 100 | 49.6 | > 100 |  |  |  |  |  |  |  |  | 
16 | O=C(O)c1cc(Cl)cc(NC(=O)C(Cl)Cl)c1Cl | > 100 | > 100 | > 100 | > 100 | > 100 | > 100 | > 100 |  |  |  |  |  |  |  |  | 
17 | COC(=O)C(CC=O)C(=O)C(=O)Nc1cccc(C(F)(F)F)c1 (stereo not given) |  | > 100 | > 100 | > 100 | > 100 | > 100 | > 100 |  |  |  |  |  |  |  |  | 
18 | Cc1cc(N(CCC#N)S(=O)(=O)c2ccccc2)ccc1C=O | > 100 | > 100 | > 100 |  | > 100 | > 100 | > 100 |  |  |  |  |  |  |  |  | 
19 | CC1CCC(O)C(C(O)CC2CC(=O)N(C)C(=O)C2)C1 (stereo not given) | > 100 | > 100 | > 100 | > 100 | > 100 |  | > 100 |  |  |  |  |  |  |  |  | 
20 | O=c1c2ccccc2nc(-c2ccccc2)n1NCC1(O)OCC(O)C(O)C1O (stereo not given) | > 100 | > 100 | > 100 | > 100 | > 100 | > 100 | > 100 |  |  |  |  |  |  |  |  | 
21 | N#Cc1c2c(c(N=[N+]=[N-])n3c1nc1ccccc13)CCCC2 | 6.52 | 14 |  | 6.1 |  | 32.3 | 3.66 |  |  |  |  |  |  |  |  | 
